Entries after “also recorded” stand apart in the source; their conditions may differ. Where no end group is shown, it is not given here.
How the values were obtained:
[1] = target: T1, Tyrosinase (Agaricus bisporus, UniProt C7FF04); experiment: Tyrosinase inhibitory activity assay (mushroom tyrosinase, L-tyrosine substrate); assay type: biochemical; settings: 0.5 mg/mL L-tyrosine, PBS, 20 μL tyrosinase (500 U/mL), preincubation 37 °C 10 min, reaction 10 min at 37 °C; mean ± SD of at least three experiments
T1 construct: purchased Shanghai Yuanye Biotechnology Co., Ltd. (Shanghai, China)
Protocol: Tyrosinase (from Mushroom, 500 U/mg) and PBS buffer were purchased from Shanghai Yuanye Biotechnology Co., Ltd. (Shanghai, China). L-tyrosine was obtained from Shanghai Macklin Biochemical Technology Co., Ltd. (Shanghai, China).
A solution of L-tyrosine at a concentration of 0.5 mg/mL, along with the sample solution and PBS buffer, was sequentially introduced into a 96-well plate. The mixture was thoroughly homogenized and subsequently incubated at 37 °C for 10 min. Following this incubation, 20 μL of tyrosinase solution (500 U/mL) was added to each well, and the plate was promptly placed in an enzyme marker for a reaction period of (10 min ± 5 s) at 37 °C.

[2] = tested on: B16F10 cells; experiment: Cytotoxicity to B16F10 cells (CCK-8); assay type: cell-based, mouse; settings: 10–800 μg/mL
Protocol: B16F10 cells were purchased from Hunan FengHui Biotechnology Co., Ltd. (Changsha, Hunan, China). Cell cultures of B16F10, specifically from generations 10 to 25, were maintained in a medium consisting of DMEM supplemented with 10% fetal bovine serum and 1% antibiotic–antifungal solution, under conditions of 5% CO2 at 37 °C.
Cell viability was evaluated utilizing the Cell Counting Kit-8 (CCK-8) assay. During the logarithmic growth phase, 100 µL of cell suspension, containing 3000 cells per well, was transferred into 96-well plates. Following a 24 h incubation period at 37 °C, the supernatant was discarded. Wells containing 100 µL of medium were designated as blank controls. […]

[3] = DPPH free radical scavenging capacity (kit); settings: synthetic peptides, 1 mg/mL; comparison among the three peptides, in words
Protocol: (§1) Use a concentration of 1 mg/mL of the enzymatic hydrolysate to assess the free radical scavenging rate. DPPH and ABTS free radical scavenging capacity assays were conducted using kits from Grace Biotechnology Co., Ltd. (Suzhou, Jiangsu, China). The subsequent determination of the inhibitory rate of peptide tyrosinase synthesis and the antioxidant measurement methods refer to this step.

[4] = ABTS free radical scavenging capacity (kit); settings: synthetic peptides, 1 mg/mL; ranking among the three peptides (p < 0.05)
Protocol: as §1

[5] = tested on: tyrosinase activity in B16F10 cells; experiment: Intracellular tyrosinase activity in B16F10 cells; assay type: cell-based, mouse; settings: 50 μg/mL (highest treatment concentration; Kojic acid 50 μg/mL), 24 h, L-DOPA, 475 nm, vs control
Protocol: Cells in the logarithmic growth phase were cultured at a density of 4 × 10^5 cells per well in 6-well plates. Following a 24 h incubation period, the culture supernatant was discarded. Experimental groups were established, including a control group, a positive control group treated with Kojic acid at a concentration of 50 µg/mL [40], and peptide-treated groups at concentrations of 10, 25, and 50 µg/mL. After an additional 24 h of incubation, the cells were lysed, and the resulting cell lysates were subjected to centrifugation at 12,000 rpm for 10 min. The reaction mixture was prepared by combining 50 µL of the cell lysate supernatant, 50 µL of 1 mg/mL L-DOPA, and 50 µL of PBS buffer. This mixture was incubated at 37 °C for 1 h. Subsequently, the level of […] formation was quantified spectrophotometrically at a wavelength of 475 nm. The activity of tyrosinase was reported as a percentage relative to the blank control.

[6] = tested on: melanin production in B16F10 cells; experiment: Melanin content of B16F10 cells; assay type: cell-based, mouse; settings: 50 μg/mL (highest treatment concentration; Kojic acid 50 μg/mL), 48 h, absorbance 405 nm, vs control
Protocol: Cells in the logarithmic growth phase were cultured at a density of 4 × 10^5 cells per well in 6-well plates. Following a 24 h incubation period, the culture supernatant was discarded. Experimental groups were established, including a control group, a positive control group treated with Kojic acid at a concentration of 50 µg/mL [40], and peptide-treated groups at concentrations of 10, 25, and 50 µg/mL. After an additional 24 h of incubation, the cells were lysed, and the resulting cell lysates were subjected to centrifugation at 12,000 rpm for 10 min. The reaction mixture was prepared by combining 50 µL of the cell lysate supernatant, 50 µL of 1 mg/mL L-DOPA, and 50 µL of PBS buffer. This mixture was incubated at 37 °C for 1 h. Subsequently, the level of dopamine formation was quantified spectrophotometrically at a wavelength of 475 nm.
The cell culture stage for melanin content determination was as follows: The cells were washed twice with PBS buffer after 48 h of peptide treatment. Trypsin digestion was performed, and the cells were collected. […] Then, 200 µL of the supernatant was transferred to a 96-well plate, and the absorbance was measured at 405 nm. The melanin content was then expressed as a percentage of the control group.

[7] = tested on: catalase (CAT); experiment: CAT activity in B16F10 cells; assay type: cell-based, mouse; settings: 50 μg/mL (highest treatment concentration; Kojic acid 50 μg/mL)
Protocol: (§2) Cell culture and treatment methods were the same as described in Section 3.10. The activities of catalase (CAT), glutathione peroxidase (GSH-Px), and superoxide dismutase (SOD) were determined using the assay kit from Nanjing Jianjian Bioengineering Research Institute (Nanjing, China).

[8] = tested on: glutathione peroxidase (GSH-Px); experiment: GSH-Px activity in B16F10 cells; assay type: cell-based, mouse; settings: 50 μg/mL (highest treatment concentration; Kojic acid 50 μg/mL)
Protocol: as §2

[9] = tested on: superoxide dismutase (SOD); experiment: SOD activity in B16F10 cells; assay type: cell-based, mouse; settings: 50 μg/mL (highest treatment concentration; Kojic acid 50 μg/mL)
Protocol: as §2

T1 sequence (C7FF04 1-392): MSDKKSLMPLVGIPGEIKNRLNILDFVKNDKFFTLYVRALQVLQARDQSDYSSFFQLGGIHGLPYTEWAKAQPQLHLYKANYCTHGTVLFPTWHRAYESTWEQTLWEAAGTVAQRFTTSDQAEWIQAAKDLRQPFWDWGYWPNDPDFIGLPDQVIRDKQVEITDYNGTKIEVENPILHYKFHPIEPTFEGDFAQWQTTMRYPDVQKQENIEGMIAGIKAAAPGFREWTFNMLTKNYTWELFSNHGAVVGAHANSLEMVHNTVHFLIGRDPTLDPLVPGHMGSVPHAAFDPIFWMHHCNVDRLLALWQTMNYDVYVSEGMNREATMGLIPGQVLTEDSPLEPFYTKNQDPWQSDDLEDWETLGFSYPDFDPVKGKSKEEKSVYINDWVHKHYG

Row | Molecule | IC50 [1] [µM] | viability of B16F10 cells [2] [%] | cytotoxicity / viability vs control group ([2]; in words) | DPPH radical scavenging effect [3] | ABTS radical scavenging ability (ranking) [4] | decrease of intracellular tyrosinase activity [5] [%] | decrease of melanin content [6] [%] | increase of CAT activity [7] [%] | increase of GSH-Px activity [8] [%] | increase of SOD activity [9] [%]
1 | YPNPY [YPNPY, Tyr-Pro-Asn-Pro-Tyr] | 545 ± 28 | ~100 | no significant difference in the viability of B16F10 cells; also recorded: did not exhibit any cytotoxic effects |  |  |  |  |  |  | 
2 | GYHFHSYP [GYHFHSYP, Gly-Tyr-His-Phe-His-Ser-Tyr-Pro] | > 5000 |  |  | remained consistent at a concentration of 1 mg/mL (p > 0.05) | GYHFHSYP > YPNPY > YVPGHG (p < 0.05) |  |  |  |  | 
3 | O=c1cc(CO)occ1O [Kojic acid] |  |  |  |  |  | 16.64 | 17.39 | 32.04 | 25.56 | 68.81
4 | YVPGHG [YVPGHG, Tyr-Val-Pro-Gly-His-Gly] | > 50000 |  |  | remained consistent at a concentration of 1 mg/mL (p > 0.05) | GYHFHSYP > YPNPY > YVPGHG (p < 0.05) |  |  |  |  | 

Source: article PMC11433014, “In Vitro In Silico Screening Strategy and Mechanism of Novel Tyrosinase Inhibitory Peptides from Nacre of Hyriopsis cumingii” (Marine Drugs, 2024)
